Consider 1 compound from US6569902B2, “Nitrone inhibition of cancer development” (Oklahoma Medical Research Foundation, priority 2000, dated 2003).

In the data set the test system is male Wistar rats fed the CDAA diet. Put plainly: Example 1 main study: hepatocarcinogenesis (HCA, HCC, fibrosis) in rats fed the CDAA diet for 70 weeks. In kind it is in vivo, rat. An excerpt: Animals, diets and chemical. The protocols were approved prior to the experiments by the Animal Experimentation committee at Nara Medical University according to the Guidelines on Animal Experiments in accordance with Japanese Government Animal Protection and Management Law Number 105 and Japanese Government Notification on Feeding and Safekeeping of Animals Number 6. Male Wistar rats, 6 weeks old, were purchased from JapanSLC, Inc., Hamamatsu, Shizuoka, Japan. Rats were housed 5 each to a plastic cage with white flake bedding (Kansai Animal Corp., City of Kyoto, Kyoto, Japan) in an air-conditioned room (25±3° C. temperature, 55 ±8% relative humidity, 10-12/h ventilation and 12-h dark/light cycle). Rats were used for the experimentation after a 1-week acclimation on a basal diet (CE-1, Clea Japan, Meguro, Tokyo, Japan) and allowed free access to food and tap water throughout the acclimation and experimental periods. Body weight, food consumption and water intake were monitored weekly. The CDAA diet and a control CSAA diet were obtained from Dyets Inc., Bethlehem, PA.
Main study. A total of 60 rats were equally divided into 6 groups. Group 1 received the CDAA diet for 70 weeks. […] The time-point of 26 weeks after the commencement, when treatments were changed in groups 3 and 4, was decided according to the results of the pilot study (see the Results and Discussion section below). All surviving rats were sacrificed 70 weeks after the commencement, and the livers were taken. Two serial 4-μm-thick, 10%-neutrally-buffered-folmalin-fixed 9 for 24 h), paraffin-embedded liver specimens were prepared and stained routine H&E and Masson's trichrome procedures. The H&E-stained liver specimens were histologically examined according to the aforementioned criteria (Maronpot et al. 1986), and the incidences of HCA and HCC were determined. Grade of fibrosis were evaluated by analyzing percent area occupied by collagen fiber in the Masson's trichrome-stained liver specimens using an IPAP image analyzing system (Sumika Technoservice, Corp., City of Osaka, Osaka, Japan).
Statistical analyses. Statistical analyses were carried out using an InStat software (GraphPad Software, Inc., San Diego, Cali.). Fisher's exact test was used to assess statistical significance of inter-group differences of the lesion incidences. Student-Newrnan-Keuls multiple comparison test was used to assess statistical significance of inter-group differences of means after one-way ANOVA to determine variations among group means, followed by Bartlett's test to determine homogeneity of variance.

[1] abbreviates: group 2: CDAA diet with PBN 0.065% in drinking water for 70 weeks, CDAA alone 57.1%.
[2] abbreviates: group 3: CDAA with PBN for first 26 weeks, then CDAA alone 44 weeks.
[3] abbreviates: group 4: CDAA alone 26 weeks, then CDAA with PBN for last 44 weeks.
[4] abbreviates: group 6: CSAA control diet with PBN 70 weeks (stated for groups 5 or 6).

Take `CC(C)(C)[N+]([O-])=Cc1ccccc1` [PBN, phenyl N-tert-butyl nitrone]: the “carcinogenicity of PBN itself” value (70-week study, PBN in drinking water) is given as “not carcinogenic itself”. Also, the HCA incidence was 25.0% under setting [1], 28.6% under setting [2], 62.5% under setting [3] and 0% under setting [4]. The HCC incidence is, setting by setting: under setting [1], 25.0%; under setting [2], 0%; under setting [3], 0%; under setting [4], 0%. For the same compound, the “grade of fibrosis, percent of liver specimen occupied by fiber” value reads like this: (group 2: PBN 70 weeks, group 1 (CDAA alone) 13.32%) 9.95%; (group 3: PBN first 26 weeks, group 1 13.32%) 8.71%; (group 4: PBN last 44 weeks, group 1 13.32%) 12.86%. This compound returned a grade of fibrosis (group 6: CSAA control diet with PBN 70 weeks (one value stated for groups 5 or 6)) of 1.61%.
